Results on one compound are retold here after patent US20130303605A1, “EXTERNAL COMPOSITION FOR SKIN CONTAINING MANASSANTIN B AS ACTIVE INGREDIENT AND THE USE THEREOF FOR SKIN WHITENING” (Amorepacific Corporation, priority 2006, published 2013).

For one assay, the system named is melan-a cells. The assay is described as follows: Inhibition of melanosome transfer at cell level (optical microscope observation). The class given is cell-based, mouse. The conditions noted are these: various concentrations, after 4 days, optical microscope (FIG. 1). On the procedure: Melan-a Cells, Immortalized Mouse Melanocytes, Were cultured to a confluency of 90% in 10% fetal bovine serum-containing RPMI 1640 medium in a 10% CO2 incubator, while the medium was replaced with fresh medium at 3-day intervals.
The melan-a cells cultured in the step 1 were separated using 0.25% trypsin-EDTA and spread on a 6-well plate at a density of 3×10^5 cells/well. Then, the cells were left to stand for 24 hours.

For assay [1], the system named is acyl CoA cholesterol acyltransferase. The note with it: Korean Patent Application No. 10-2003-0080397; cited from earlier work.
For another assay, the target named is T1, tyrosinase (Mus musculus, UniProt P11344).
T1 construct: disrupted with 0.1M phosphate buffer (containing 1% triton x-100); endogenous in cells; host or cells: cultured melanocytes (melan-a), cell lysate supernatant
T1 sequence (P11344 19-533): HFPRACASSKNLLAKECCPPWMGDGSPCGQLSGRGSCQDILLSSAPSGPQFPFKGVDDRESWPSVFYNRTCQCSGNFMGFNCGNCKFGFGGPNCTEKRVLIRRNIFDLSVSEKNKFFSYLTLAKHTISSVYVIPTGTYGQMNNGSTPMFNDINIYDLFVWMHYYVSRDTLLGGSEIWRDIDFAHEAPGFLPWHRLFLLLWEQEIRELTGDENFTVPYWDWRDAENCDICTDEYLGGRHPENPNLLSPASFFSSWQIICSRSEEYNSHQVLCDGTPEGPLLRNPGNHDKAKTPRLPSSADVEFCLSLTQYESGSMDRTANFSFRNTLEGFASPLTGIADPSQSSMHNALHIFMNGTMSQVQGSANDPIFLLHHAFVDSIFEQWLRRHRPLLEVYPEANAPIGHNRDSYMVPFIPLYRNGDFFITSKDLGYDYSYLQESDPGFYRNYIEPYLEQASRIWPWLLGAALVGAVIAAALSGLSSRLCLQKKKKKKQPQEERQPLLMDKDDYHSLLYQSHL
The assay is described as follows: Tyrosinase activity inhibition in melanocyte lysate (L-DOPA, absorbance 490 nm). The note with it: melan-a cell lysate, 1 hour with various concentrations, absorbance at 490 nm (FIG. 3). The class given is biochemical. On the procedure: Melanocytes were cultured in the same manner as in the step 1 of Test Example 1.
The cells cultured in the step 1 were washed once with cold PBS, and then disrupted with 0.1M phosphate buffer (containing 1% triton x-100). Then, the cells were centrifuged at 1400 rpm for 20 minutes, and the cell supernatant was isolated. 40 μg of the protein thus prepared was mixed with various concentrations of manassantin B and allowed to react for 1 hour. The reaction material was treated with 2 mg/ml of L-DOPA solution and left to stand 37° C.

The test system of assay [2] is melan-a cells and SP-1 cells. As to the kind of experiment: Inhibition of melanin synthesis in coculture of melanocytes and keratinocytes. Type of assay: cell-based, mouse. On the procedure: Melanocytes were cultured in the same manner as in the step 1 of Test Example 1. Mouse keratinocytes SP-1 cells were cultured to a confluency of […] in 8% fetal bovine serum-containing s-MEM medium in a 10% CO2 incubator, while the medium was replaced with fresh medium at 3-days intervals.
The melan-a cells and SP-1 cells cultured in the step were separated with 0.25% Trypsin-EDTA and spread together on a 12-well plate at a ratio of 1:10 at cell densities of 1×10^4 cells/well for melan-a and 1×10^5 cells/well for SP-1. Then, the cells were left to stand for 24 hours. The cells were treated with manassantin B at various concentrations, and after 5 days, the cells were collected with 1N NaOH. The collected cells were measured for absorbance at 405 nm and measured for protein concentration using the Lowry method.

Assay [3] concerns melanophilin and myosin 5a. The assay is described as follows: Inhibition of binding between melanophilin and myosin 5a (plate binding, chemiluminescence). The note with it: his-GFP-mlphCT on nickel-coated plate, Flag-MyosinVa GT, chemiluminescence (FIG. 2). From the text:
Proteins required in the test were produced in large amounts using a suitable system (E. coli) or baculovirus. Herein, the designed proteins essentially included domains known to be required for protein interaction and contained GST, His tag or flag tag such that the produced proteins could be easily purified and isolated. Each of a histidine tagged-GFP-melanophilin recombinant protein and a Flag-MyosinVa recombinant protein, which were to be used as bait proteins, were expressed in a baculovirus system, cells containing the proteins were disrupted, and then extracts were prepared. Flag-MyosinVa GT was prepared into an extract with PBS TG buffer solution, and then purified by flag-affinity chromatography.
The his-GFP-mlphCT protein prepared in the step 1 was bound to a nickel-coated plate through reaction. To the plate, binding partner Flag-MyosinVa GT was bound, and then an M2 antibody recognizing the flag was bound. The plate was subjected to color development reaction by chemiluminescence to measure the degree of binding between the proteins.

As to `COc1ccc([C@@H](O)[C@@H](C)Oc2ccc([C@H]3O[C@H](c4ccc(O[C@H](C)[C@H](O)c5ccc6c(c5)OCO6)c(OC)c4)[C@H](C)[C@H]3C)cc2OC)cc1OC` [manassantin B], the “configuration of the cells / distribution (transfer) of melanosomes” value with melan-a cells is “melanosomes were gathered together around the nuclei”. Further, the “inhibition of activity of acyl CoA cholesterol acyltransferase” value in assay [1] was “inhibit the activity of acyl CoA cholesterol acyltransferase”. For the same compound, the “inhibition of tyrosinase activity” value on tyrosinase is “did not directly inhibit”. In addition, in assay [2] (Mus musculus, 120 h, coculture melan-a:SP-1 1:10, 5 days, manassantin B concentration of 0.02 ppm), the inhibition (as a rule, the change of the read-out against control, counted positive when it falls) at 0.02 ppm is approximately 50%. In assay [2] (coculture melan-a:SP-1 1:10, various concentrations, 5 days (FIG. 4)), the “inhibition of melanin synthesis” value is listed as “inhibited melanin synthesis in a concentration-dependent manner”. The “degree of binding between melanophilin and myosin 5a” value in assay [3] is reported as “inhibited the binding”.
